#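 Step 1: Grow cells in 96-well plates. Step 2: Expose to compound for 48 hours at 5 concentrations. Step 3: Interpolate endpoints linearly; if unreached, use highest concentration. TGI marks complete inhibition of growth.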
# System: P388/ADR leukemia
# Assay: NCI tumour cell line growth inhibition, 48 h
smiles,measurement,value
CC[C@@]1(O)C(=O)OCc2c1cc1n(c2=O)Cc2cc3c(N)cccc3nc2-1,TGI,375 nM

# — PubChem BioAssay (NCI)
